Experimental findings from patent US11802111B2, “Cyclobutyl amide monoacylglycerol lipase modulators” (Janssen Pharmaceutica NV, priority 2020, dated 2023) are described below.

pIC50: −log10 of the molar value.

human MGL from HeLa cells, sequence (Q99685 whole entry): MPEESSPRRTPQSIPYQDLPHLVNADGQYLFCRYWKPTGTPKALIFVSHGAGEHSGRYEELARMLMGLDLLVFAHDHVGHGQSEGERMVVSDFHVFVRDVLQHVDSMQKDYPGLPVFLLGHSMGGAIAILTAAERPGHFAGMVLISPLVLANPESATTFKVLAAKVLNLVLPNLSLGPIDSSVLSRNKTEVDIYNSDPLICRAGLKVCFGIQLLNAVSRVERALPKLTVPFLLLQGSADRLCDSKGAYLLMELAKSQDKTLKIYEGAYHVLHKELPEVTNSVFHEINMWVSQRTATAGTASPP

The target of this assay is human MGL from HeLa cells (Homo sapiens (Human), UniProt Q99685). Put plainly: MGL in vitro activity assay ([glycerol-1,3-3H]-oleoyl glycerol hydrolysis, activated carbon filtration). Format: biochemical. Particulars: 300 nM [Glycerol-1,3-3H]-oleoyl glycerol, one hour. The method in brief:
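Activity measured as tritium in the flow-through after activated carbon filtration of a 1 h reaction containing 300 nM 3H-oleoyl glycerol, compound and HeLa-derived human MGL. Compounds screened at 10 μM; IC50 series start at an empirically chosen highest concentration.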
As a reminder, the pIC50 is −log10 of the IC50, conventionally taken in molar units. Lower therefore signals a large IC50. Consider `CC(C)(C)c1cccc(OC2CCC3(C2)CN(C(=O)[C@H]2C[C@@](C)(O)C2)C3)c1` (mixture of isomers) [Example 243, (rac)-(6-(3-(tert-Butyl)phenoxy)-2-azaspiro[3.4]octan-2-yl)((1s,3s)-3-hydroxy-3-methylcyclobutyl)methanone], for which the negative logarithm of the IC50 (pIC50) is 7.59.
`Cc1c(OC2CCC3(C2)CN(C(=O)[C@H]2C[C@@](C)(O)C2)C3)cccc1C(F)(F)F` (mixture of isomers) [Example 253, (rac)-((1s,3s)-3-Hydroxy-3-methylcyclobutyl)(6-(2-methyl-3-(trifluoromethyl)phenoxy)-2-azaspiro[3.4]octan-2-yl)methanone]: the negative logarithm of the IC50 (pIC50) was 7.59.
`Cc1cc(OC2CCC3(C2)CN(C(=O)[C@H]2C[C@@](C)(O)C2)C3)ccc1C(F)(F)F` (mixture of isomers) [Example 254, (rac)-((1s,3s)-3-Hydroxy-3-methylcyclobutyl)(6-(3-methyl-4-(trifluoromethyl)phenoxy)-2-azaspiro[3.4]octan-2-yl)methanone] gave a negative-log IC50 (pIC50) of 7.68.
With `Cc1cc(C(F)(F)F)ccc1OC1CCC2(C1)CN(C(=O)[C@H]1C[C@@](C)(O)C1)C2` (mixture of isomers) [Example 255, (rac)-((1s,3s)-3-Hydroxy-3-methylcyclobutyl)(6-(2-methyl-4-(trifluoromethyl)phenoxy)-2-azaspiro[3.4]octan-2-yl)methanone], the negative logarithm of the IC50 (pIC50) is 7.82.
`Cc1ccc(OC2CCC3(C2)CN(C(=O)[C@H]2C[C@@](C)(O)C2)C3)cc1C(F)(F)F` (mixture of isomers) [Example 256, (rac)-((1s,3s)-3-Hydroxy-3-methylcyclobutyl)(6-(4-methyl-3-(trifluoromethyl)phenoxy)-2-azaspiro[3.4]octan-2-yl)methanone] showed a pIC50 of 7.13.
The result for `CC(c1cccc2ccnn12)C1CC2(C1)CN(C(=O)[C@H]1C[C@@](C)(O)C1)C2` (mixture of isomers) [Example 316, (rac)-((1s,3s)-3-Hydroxy-3-methylcyclobutyl)(6-(1-(pyrazolo[1,5-a]pyridin-7-yl)ethyl)-2-azaspiro[3.3]heptan-2-yl)methanone] reads 7.31; that for `CC(C)c1cccc(C2CCC3(C2)CN(C(=O)[C@H]2C[C@](O)(C(F)F)C2)C3)c1` (mixture of isomers) [Example 319, (rac)-((1s,3s)-3-(Difluoromethyl)-3-hydroxycyclobutyl)(6-(3-isopropylphenyl)-2-azaspiro[3.4]octan-2-yl)methanone], 7.42; that for `CC(F)(F)c1ccc(C2CCC3(C2)CN(C(=O)[C@H]2C[C@@](C)(O)C2)C3)cc1` (mixture of isomers) [Example 320, (rac)-(6-(4-(1,1-Difluoroethyl)phenyl)-2-azaspiro[3.4]octan-2-yl)((1s,3s)-3-hydroxy-3-methylcyclobutyl)methanone], 7.74.
In turn, `C[C@]1(O)C[C@@H](C(=O)N2CC3(CCC(c4ccc5c(c4)OCC5)C3)C2)C1` (mixture of isomers) [Example 323, (rac)-(6-(2,3-Dihydrobenzofuran-6-yl)-2-azaspiro[3.4]octan-2-yl)((1s,3s)-3-hydroxy-3-methylcyclobutyl)methanone] had a pIC50 of 6.78.
The result for `C[C@]1(O)C[C@@H](C(=O)N2CC3(CCC(c4cccn5nccc45)C3)C2)C1` (mixture of isomers) [Example 324, (rac)-((1s,3s)-3-Hydroxy-3-methylcyclobutyl)(6-(pyrazolo[1,5-c]pyridin-4-yl)-2-azaspiro[3.4]octan-2-yl)methanone] reads 6.08; that for `C[C@]1(O)C[C@@H](C(=O)N2CC3(CCC(c4cc5ccccn5n4)C3)C2)C1` (mixture of isomers) [Example 325, (rac)-((1s,3s)-3-Hydroxy-3-methylcyclobutyl)(6-(pyrazolo[1,5-c]pyridin-2-yl)-2-azaspiro[3.4]octan-2-yl)methanone], 6.46.
With `Cn1ncc2c(C3CCC4(C3)CN(C(=O)[C@H]3C[C@@](C)(O)C3)C4)cccc21` (mixture of isomers) [Example 326, (rac)-((1s,3s)-3-Hydroxy-3-methylcyclobutyl)(6-(1-methyl-1H-indazol-4-yl)-2-azaspiro[3.4]octan-2-yl)methanone] the figure was 6.73.
